Here are results for 32 compounds from ChEMBL document CHEMBL5126582, “Discovery of (2-(pyrrolidin-1-yl)thieno[3,2-d]pyrimidin-4-yl)(3,4,5-trimethoxyphenyl)methanone as a novel potent tubulin depolymerizing and vascular disrupting agent” (Eur J Med Chem, 2022).

In one series the test system is HeLa. Nature of the series: Antiproliferative activity against human HeLa cells assessed as reduction in cell viability incubated for 48 hrs by MTS assay. The series is classed as functional, cell-based. On the technique in general: Tetrazolium dyes change colour on reduction, which living cells bring about.
The next series relates to HL-60. Nature of the series: Antiproliferative activity against human HL-60 cells assessed as reduction in cell viability incubated for 48 hrs by MTS assay. The class given is functional, cell-based. Conditions: HL-60, 48 h.
A further series deals with HCT-116. Briefly: Antiproliferative activity against human HCT-116 cells assessed as reduction in cell viability incubated for 48 hrs by MTS assay. Conditions: HCT-116, 48 h. The series is classed as functional, cell-based.
A further series concerns A549. Nature of the series: cells. To be noted: Homo sapiens, A549, 48 h.
A short description of series [1]: Antiproliferative activity against human A549/PTX cells assessed as reduction in cell viability measured for 48 hrs by MTS assay. The series is classed as functional, cell-based.
Series [2] in a line: Resistance index, ratio of IC50 for antiproliferative activity against human A549/PTX cells assessed as reduction in cell viability to IC50 for antiproliferative activity against human A549 cells assessed as reduction in cell viability. The class given is functional.
Series [3] can be described thus: Metabolic stability in rat liver microsomes assessed as intrinsic clearance incubated for 5 mins in presence of NADPH by HPLC analysis. The class given is ADME, Microsome. To be noted: read-out: CLH. (Liver microsomes are a subcellular fraction often used to study metabolism.)

Description for A549: Antiproliferative activity against human A549 cells assessed as reduction in cell viability incubated for 48 hrs by MTS assay

Usually IC50 stands for the concentration at which inhibition is half-maximal. On to `CCNc1nc(C(=O)c2cc(OC)c(OC)c(OC)c2)c2sccc2n1`, for which the IC50 in the series on HeLa turned out to be 0.037 µM; in the series on HL-60, 0.174 µM; in the series on HCT-116, 0.309 µM; in the series on A549, 0.147 µM.
The matching figures for `COc1cc(C(=O)c2nc(N3CCN(C)CC3)nc3ccsc23)cc(OC)c1OC`: above 10 µM, above 10 µM, above 10 µM and above 10 µM.
The matching figures for `COc1cc(C(=O)c2nc(NC3CCC3)nc3ccsc23)cc(OC)c1OC`: 0.933 µM, 0.651 µM, 0.293 µM and 2.4 µM.
Take `COc1cc(C(=O)c2nc(N3CC=CC3)nc3ccsc23)cc(OC)c1OC`: the IC50 was 0.022 µM in the series with HeLa, 0.093 µM with HL-60, 0.026 µM in the series on HCT-116 and 0.101 µM in the series on A549.
The matching figures for `CCOc1nc(C(=O)c2cc(OC)c(OC)c(OC)c2)c2sccc2n1`: above 10 µM, 7.09 µM, above 10 µM and above 10 µM.
Consider `COc1cc(C(=O)c2nc(NC3CCCCC3)nc3ccsc23)cc(OC)c1OC`, for which the IC50 in the series on HeLa was above 10 µM; in the series with HL-60, 2.46 µM; in the series on HCT-116, above 10 µM; in the series with A549, above 10 µM.
As to `COc1cc(C(=O)c2nc(N3CCNCC3)nc3ccsc23)cc(OC)c1OC`, the IC50 in the series with HeLa, with HL-60, with HCT-116 and in the series on A549 was above 10 µM throughout.
With `COc1ccc(C(=O)c2nc(N3CCCC3)nc3ccsc23)cc1`, the IC50 in the series with HeLa, in the series on HL-60, in the series with HCT-116 and in the series on A549 was above 10 µM each time.
Consider `COc1cc(C(=O)c2nc(N3CCSCC3)nc3ccsc23)cc(OC)c1OC`, for which the IC50 in the series on HeLa, with HL-60, with HCT-116 and in the series with A549 was above 10 µM each time.
For `COc1cc(C(=O)c2nc(N(C)C3CCCCC3)nc3ccsc23)cc(OC)c1OC`, the IC50 in the series on HeLa, in the series with HL-60, in the series with HCT-116 and with A549 was above 10 µM each time.
As to `COc1cc(C(=O)c2nc(N3CCC(F)(F)C3)nc3ccsc23)cc(OC)c1OC`, the IC50 was determined as 0.351 µM with HeLa, 0.377 µM with HL-60, 0.507 µM in the series on HCT-116 and 0.303 µM in the series with A549.
The matching figures for `COc1cc(C(=O)c2nc(N(C)C)nc3ccsc23)cc(OC)c1OC`: 1.22 µM, 0.536 µM, above 10 µM and above 10 µM.
Regarding `COc1cc(C(=O)c2nc(Nc3cccc(C)c3)nc3ccsc23)cc(OC)c1OC`, the IC50 with HeLa came to 0.053 µM; in the series with HCT-116 it was 0.151 µM.
In the case of `COc1ccc(C(=O)c2nc(N3CCCC3)nc3ccsc23)cc1OC`, the IC50 in the series on HeLa, in the series on HL-60, in the series on HCT-116 and in the series with A549 was above 10 µM in each case.
Consider `COc1cc(C(=O)c2nc(NC3CCOCC3)nc3ccsc23)cc(OC)c1OC`, for which the IC50 is above 10 µM in the series on HeLa, 8.05 µM in the series with HL-60, above 10 µM with HCT-116 and above 10 µM with A549.
With `COc1cc(C(=O)c2nc(N3CCS(=O)(=O)CC3)nc3ccsc23)cc(OC)c1OC`, the IC50 in the series with HeLa, with HL-60, in the series on HCT-116 and with A549 was above 10 µM throughout.
Regarding `COc1cc(C(=O)c2nc(NC3CCCC3)nc3ccsc23)cc(OC)c1OC`, the IC50 is above 10 µM in the series on HeLa, 8.4 µM in the series on HL-60, above 10 µM in the series on HCT-116 and above 10 µM in the series with A549.
`COc1nc(C(=O)c2cc(OC)c(OC)c(OC)c2)c2sccc2n1`: the IC50 with HeLa worked out at 0.263 µM; in the series with HL-60 it was 0.224 µM; in the series on HCT-116, 0.329 µM; with A549, 0.965 µM.
The matching figures for `COc1cccc(C(=O)c2nc(N3CCCC3)nc3ccsc23)c1`: above 10 µM, 9.57 µM, above 10 µM and above 10 µM.
The matching figures for `COc1cc(C(=O)c2nc(N3CCC3)nc3ccsc23)cc(OC)c1OC`: 0.758 µM, 0.486 µM, 0.278 µM and 3.15 µM.
With `CC(=O)O[C@H]1C(=O)[C@@]2(C)[C@H]([C@H](OC(=O)c3ccccc3)[C@]3(O)C[C@H](OC(=O)[C@H](O)[C@@H](NC(=O)c4ccccc4)c4ccccc4)C(C)=C1C3(C)C)[C@]1(OC(C)=O)CO[C@@H]1C[C@@H]2O` [PACLITAXEL], the IC50 came out at 1.02 µM in series [1] and 0.0011 µM in the series on A549. Moreover, in series [2], the “Ratio IC50” value is recorded as 964.
Consider `CNc1nc(C(=O)c2cc(OC)c(OC)c(OC)c2)c2sccc2n1`, for which the IC50 with HeLa was 0.058 µM; in the series with HL-60, 0.032 µM; in the series with HCT-116, 0.114 µM; in the series with A549, 0.045 µM.
Turning to `COc1cc(C(=O)c2nc(Cl)nc3ccsc23)cc(OC)c1OC`, the IC50 in the series on HeLa is 1.14 µM; in the series with HL-60, 0.889 µM; with HCT-116 it was 0.225 µM; in the series with A549, 0.954 µM.
The matching figures for `COc1cc(C(=O)c2nc(N3CCCC3)nc3cc(C)sc23)cc(OC)c1OC`: 0.194 µM, 0.122 µM, 1.74 µM and 0.452 µM.
The matching figures for `COc1cc(OC)cc(C(=O)c2nc(N3CCCC3)nc3ccsc23)c1`: 4.38 µM, 0.934 µM, 0.616 µM and 4.34 µM.
The matching figures for `COc1cc(C(=O)c2nc(SC)nc3ccsc23)cc(OC)c1OC`: above 10 µM, 0.285 µM, above 10 µM and above 10 µM.
For the compound `O=C(O)Cc1ccccc1Nc1c(Cl)cccc1Cl` [DICLOFENAC], the microsomal CLint in series [3] amounted to 64.2 µL/min/mg.
With `COc1cc(C(=O)c2nc(N3CCC(O)C3)nc3ccsc23)cc(OC)c1OC` (configuration not stated), the IC50 came out at 2.2 µM in the series on HeLa, 3.43 µM in the series with HL-60, 1.4 µM with HCT-116 and 4.98 µM in the series on A549.
The matching figures for `COc1cc(C(=O)c2nc(N3CCCCC3)nc3ccsc23)cc(OC)c1OC`: 1.2 µM, 1.12 µM, above 10 µM and above 10 µM.
The matching figures for `COc1cc(C(=O)c2nc(N3CCOCC3)nc3ccsc23)cc(OC)c1OC`: above 10 µM, above 10 µM, above 10 µM and above 10 µM.
The matching figures for `COc1cc(C(=O)c2nc(C3CCCC3)nc3ccsc23)cc(OC)c1OC`: above 10 µM, above 10 µM, above 10 µM and above 10 µM.
In the case of `CCN(CC)c1nc(C(=O)c2cc(OC)c(OC)c(OC)c2)c2sccc2n1`, the IC50 in the series on HeLa, with HL-60, in the series with HCT-116 and with A549 was above 10 µM each time.
